Laboratory results reported in patent US20070059773A1, “Identification of therapeutic compounds” (priority 2003, published 2007).
Converted amounts (≈) assume the structure as drawn. Where two headings read alike, the source gives them in different places.

Legend:
rat cortex A1 receptor = target: T1, rat cortex A1 receptor (Rattus norvegicus, UniProt P25099); experiment: Displacement of 3H-DPCPX from the rat cortex A1 receptor; assay type: binding
T1 construct: from tissue; host or cells: rat cortex
T1 sequence (P25099 1-326): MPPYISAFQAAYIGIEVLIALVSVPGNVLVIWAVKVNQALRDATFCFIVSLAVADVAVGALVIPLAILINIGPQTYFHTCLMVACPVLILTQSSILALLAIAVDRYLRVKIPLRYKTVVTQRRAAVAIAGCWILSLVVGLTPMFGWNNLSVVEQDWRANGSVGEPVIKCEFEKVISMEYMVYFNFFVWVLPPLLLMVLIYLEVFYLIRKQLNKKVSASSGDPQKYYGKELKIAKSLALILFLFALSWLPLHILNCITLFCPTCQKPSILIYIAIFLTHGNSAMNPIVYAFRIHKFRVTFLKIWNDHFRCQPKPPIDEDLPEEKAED

[1] = target: T2, rat striatal A2A receptor (Rattus norvegicus, UniProt P30543); experiment: biochemical
[2] = target: T2, rat striatal A2A receptor; conditions: for number of affinity states revealed: Tables 1 and 2; for number of affinity states revealed / effect of GTP on the high affinity states: lower pH; for high affinity states as proportion of the total number of binding sites: lower pH (5.5); for effect of GTP on the high affinity states: presence of GTP
adenosine A2A receptor = conditions: cited from earlier work
[3] = 20 mg/kg po; cited from earlier work
[4] = test system: carageenan-induced inflammation; conditions: rats, 20 mg/kg po; cited from earlier work
[5] = test system: carrageenan (CGN) induced inflammation; experiment: Carrageenan induced inflammation (paw volume by plethysmometry); assay type: in vivo; conditions: 62.4 and 624 μg/kg i.p.; compared with indomethacin 3 mg/kg po
Description: Carrageenan (2%, 10 microlitres) was administered into the right hind paw, and the paw volume assessed by plethysomometry. 2-methoxyadenosine was administered at the same time as carrageenan.

[6] = Blood pressure and heart rate by implanted radiotelemetry; assay type: in vivo; conditions: 0.624 mg/kg p.o., rat
Description: An implantable radiotelemetry device was placed in the abdominal cavity of 6 rats per group. The pressure catheter of the device was inserted in the abdominal aorta and two electrodes tunnelised under the skin in a lead II position (left side of abdominal cavity/right shoulder). Individual rats were placed in their own cage on a radioreceptor (DSI) for data acquisition. The effect of 0.6 mg/kg 2 methoxyadenosine or vehicle (p.o.) on blood pressure was then assessed. The results are shown in FIG. 5: A: blood pressure; B: heart rate.

[7] = test system: carrageenan (CGN) induced thermal hyperalgesia; experiment: Carrageenan induced thermal hyperalgesia (paw withdrawal latency); assay type: in vivo; conditions: 0.6 mg/kg, given with carrageenan; compared with indomethacin 3 mg/kg po
Description: Carrageenan (2%, 10 microlitres) was administered into the right hind paw. A heat source was placed close to the treated and untreated hind paws, and the difference in the paw withdrawal latencies is shown. 2-methoxyadenosine was administered at the same time as carrageenan.

[8] = Plasma concentration after administration; conditions: rat, in vivo
human A2A receptor = target: T3, human A2A receptor (Homo sapiens, UniProt P29274); experiment: cAMP accumulation in HEK293 cells expressing the human A2A receptor; assay type: cell-based
T3 construct: expressed in transfected cells; host or cells: HEK293
Source text: The human A2A receptor was expressed in HEK293 cells, and the ability of agonists to stimulate cAMP accumulation assessed in the presence of rolipram to inhibit phosphodiesterase enzymes.

[9] = test system: thermal hyperalgesia caused by chronic constriction injury of the rat sciatic nerve; experiment: Chronic constriction injury model of neuropathic pain; assay type: in vivo; conditions: 0.624 mg/kg p.o., compared with carbamazepine 100 mg/kg s.c.
Source text: After approximately two weeks the rats developed thermal hyperalgesia in the operated leg as judged by the difference in paw withdrawal latencies of the right and left paws.

human A1 receptor = target: T4, human A1 receptor (Homo sapiens, UniProt P30542); experiment: Displacement of [3H]-DPCPX from the human A1 receptor; assay type: binding; conditions: read-out: Ki high affinity sites
T4 sequence (P30542 1-326): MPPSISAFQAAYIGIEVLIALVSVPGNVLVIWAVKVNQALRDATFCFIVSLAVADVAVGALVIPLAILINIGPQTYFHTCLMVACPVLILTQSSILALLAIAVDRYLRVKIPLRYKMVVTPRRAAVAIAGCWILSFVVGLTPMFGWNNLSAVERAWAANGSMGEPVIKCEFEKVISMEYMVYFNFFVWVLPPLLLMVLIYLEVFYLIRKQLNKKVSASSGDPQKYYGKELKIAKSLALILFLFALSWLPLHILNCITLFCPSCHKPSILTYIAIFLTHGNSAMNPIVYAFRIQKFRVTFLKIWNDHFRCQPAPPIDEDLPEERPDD
Source text: Compounds that show a decrease in efficacy are likely to act as low efficacy partial agonists.

[10] = test system: isolated perfused superior mesenteric arterial bed of the rat; conditions: pH of the perfusate reduced to 6.8; cited from earlier work
[11] = pH 6.2, read-out: Ki High affinity
[12] = pH 6.2, read-out: Ki Low affinity
[13] = pH 7.4, read-out: Ki High affinity
[14] = pH 7.4, read-out: Ki Low affinity

T2 sequence (P30543 whole entry): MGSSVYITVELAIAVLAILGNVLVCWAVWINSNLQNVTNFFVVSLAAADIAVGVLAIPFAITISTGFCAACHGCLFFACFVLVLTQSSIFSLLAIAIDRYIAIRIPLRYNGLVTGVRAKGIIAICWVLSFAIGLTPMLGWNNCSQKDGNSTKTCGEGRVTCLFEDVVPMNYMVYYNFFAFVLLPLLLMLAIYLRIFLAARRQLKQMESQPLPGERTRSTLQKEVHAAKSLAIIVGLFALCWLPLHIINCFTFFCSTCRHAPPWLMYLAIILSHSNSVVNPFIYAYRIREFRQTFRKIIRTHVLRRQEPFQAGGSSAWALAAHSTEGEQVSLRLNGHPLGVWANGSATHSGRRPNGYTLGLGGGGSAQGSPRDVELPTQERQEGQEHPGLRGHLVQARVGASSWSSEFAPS
T3 sequence (P29274 whole entry): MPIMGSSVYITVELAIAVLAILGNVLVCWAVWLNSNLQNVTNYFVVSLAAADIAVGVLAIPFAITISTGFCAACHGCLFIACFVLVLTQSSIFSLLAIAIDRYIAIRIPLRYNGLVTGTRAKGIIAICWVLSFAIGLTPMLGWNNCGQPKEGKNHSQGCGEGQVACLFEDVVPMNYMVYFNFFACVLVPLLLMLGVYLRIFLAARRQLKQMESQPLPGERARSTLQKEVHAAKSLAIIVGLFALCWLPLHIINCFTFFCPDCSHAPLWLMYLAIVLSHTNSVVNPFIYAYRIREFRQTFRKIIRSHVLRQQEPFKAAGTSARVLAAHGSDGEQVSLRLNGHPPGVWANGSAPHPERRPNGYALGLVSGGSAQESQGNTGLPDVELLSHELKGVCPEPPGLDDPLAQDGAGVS

Structure (SMILES): Nc1nc(Cl)nc2c1ncn2[C@@H]1O[C@H](CO)[C@@H](O)[C@H]1O [2-chloroadenosine, reference compound]
- Ki (rat cortex A1 receptor; [11]): 3.7 nM
- Ki (rat cortex A1 receptor; [12]): 1660 nM
- Ki (rat cortex A1 receptor; [13]): 4.4 nM
- Ki (rat cortex A1 receptor; [14]): 1670 nM

Structure (SMILES): CCOc1nc(N)c2ncn([C@@H]3O[C@H](CO)[C@@H](O)[C@H]3O)c2n1 [2-ethoxyadenosine]
- Ki ([1]; Ki High affinity, pH 5.5): 2.8 nM
- Ki ([1]; Ki High affinity, pH 7.4): 245 nM
- Ki ([1]; Ki Low affinity, pH 5.5): 1200 nM
- Ki ([1]; Ki Low affinity, pH 7.4): 6600 nM
- number of affinity states revealed [2]: two apparent affinity states
- high affinity states as proportion of the total number of binding sites [2]: approximately 25%
- effect of GTP on the high affinity states [2]: abolished

Structure (SMILES): COc1nc(N)c2ncn([C@@H]3O[C@H](CO)[C@@H](O)[C@H]3O)c2n1 [2-methoxyadenosine]
- EC50 (adenosine A2A receptor; Daly et al. 1993, read-out: EC50 at the adenosine A2A receptor): 3000 nM
- EC50 at adenosine receptors (adenosine A2A receptor; measured at pH7.4): 0.9 µg/mL (≈ 3.03 µM)
- EC50 (adenosine A2A receptor; measured at pH7.4, read-out: EC50 at adenosine receptors): 3000 nM
- reduction in heart rate [3]: 25%
- reduction in mean blood pressure [3]: 41%
- Ki ([1]; Ki High affinity, pH 5.5): 12.1 nM
- Ki ([1]; Ki Low affinity, pH 5.5): 1200 nM
- Ki ([1]; Ki Low affinity, pH 7.4): 2500 nM
- inhibition of carageenan-induced inflammation [4]: 25%
- carrageenan induced inflammation (paw volume) [5]: Inhibits
- effect on blood pressure [6]: no Significant Effect
- effect on heart rate [6]: no Significant Effect
- carrageenan induced thermal hyperalgesia [7]: inhibits
- plasma concentration with profound anti-hyperalgesic and anti-inflammatory activity [8]: ≤ 0.2 µM
- number of affinity states revealed [2]: two apparent affinity states
- high affinity states as proportion of the total number of binding sites [2]: approximately 25%
- Ki High affinity ([2]; pH 7.4): High affinity not detectable
- change of affinity as the pH is reduced ([2]; pH from 7.4 to 7.0 to 6.8, FIG. 2): increases as the pH is reduced
- effect of GTP on the high affinity states [2]: abolished
- efficacy at pH7.0 compared to pH7.4 (human A2A receptor; cAMP accumulation in the presence of rolipram): Increased
- increase in efficacy at the adenosine A2A receptor (human A2A receptor; pH7.0 compared to pH7.4, FIG. 3): approximately 100 fold
- thermal hyperalgesia, chronic constriction injury [9]: inhibits

Structure (SMILES): Nc1nc(Cl)nc2c1ncn2[C@@H]1O[C@H](CO)C[C@H]1O [3′-deoxy-2-chloroadenosine]
- effect of GppNHp on the high affinity state (rat cortex A1 receptor; both pH values (7.4 and 6.2)): abolished
- Ki (rat cortex A1 receptor; [11]): 17 nM
- Ki (rat cortex A1 receptor; [12]): 13400 nM
- Ki (rat cortex A1 receptor; [13]): 227 nM
- Ki (rat cortex A1 receptor; [14]): 11500 nM

Structure (SMILES): COc1nc(N)c2ncn([C@@H]3O[C@H](CO)C[C@H]3O)c2n1 [3′-deoxy-2-methoxyadenosine]
- Ki (human A1 receptor; pH 6.2): 405 ± 114 nM
- Ki (human A1 receptor; pH 7.4): 158 ± 85 nM

Structure (SMILES): Nc1nc(Nc2ccccc2)nc2c1ncn2[C@@H]1O[C@H](CO)[C@@H](O)[C@H]1O [CV1808, 2-phenylamino-adenosine, reference compound]
- Ki ([1]; Ki, pH5.5, one affinity state): 35 ± 9 nM
- Ki ([1]; Ki, pH 7.4, one affinity state): 170 ± 20 nM

Structure (SMILES): Nc1ncnc2c1ncn2[C@@H]1O[C@H](CO)[C@@H](O)[C@H]1O [adenosine]
- enhancement of dilator responses [10]: 10 fold
